The record followed here is patent US10137169B2, “Compositions and uses thereof” (FOLLICUM AB, priority 2011, dated 2018).

Test [1] concerns Mice (C57BL/6). As to the kind of experiment: Histological analysis of peeled skin: follicle count in subcutis and skin thickness (Example D). Type of test: in vivo. Further details: Skin thickness: unit not given here. The settings on record: Mean ± sem, day 16, 60 nM. The protocol:
(§1) Animals and treatments are as described above in Example B.
(§2) All animals were sacrificed on day 16.
Peeled skin sections were prepared for histological analysis as described in Example A. Follicle count in the subcutis and skin thickness were then measured.
(§3) In the present study, the animals were preselected for pink skin (telogen phase) and the test polypeptide was administered by subcutaneous/topical route. A good hair growth promoter triggers the transition from the resting telogen phase to the active anagen phase, and thus a transition from light skin to dark skin. This dark pigmentation may result from the collection of melanin in the hair follicles, in preparation for new hair growth during the anagen phase. Melanin synthesis of follicular melanocytes is strictly coupled to the anagen phase, ceases during catagen and is absent in telogen phase. […] Upon termination, the dorsal skin of the animals was then excised out by peeling and the peeled skin reversed and observed for the induction of melanogenesis indicated by visual blackening. […] A good hair growth promoter increases no. of follicles in sub cutis and skin thickness.

The subject of test [2] is Mice (C57BL/6). As to the kind of experiment: In vivo study of hair growth effect in mice, hair growth score (Example B). Further details: Hair growth score / Hair growth score, Mean: scale not given here. The conditions noted are these: for day from which hair growth was evident / hair growth effect / Hair growth score, Mean: 60 nM s.c. on Days 1, 5 and 9; for hair growth effect: assessment to day 16; for Hair growth score, Mean: mean of 5 animals. Here is the method:
Mice (C57BL/6) were used at an age of 6 to 8 weeks.
• Selection of animals in telogen phase of hair growth. • Clipping of dorsal back of animals • Subcutaneous injection of test peptide/vehicle • Visual analysis: Percentage anagen induction; Mean hair growth score; Visual melanogenesis: • Histological analysis: Follicle count in subcutis; Morphometry for skin thickness. Treatment Groups • Animals were assigned randomly to treatment groups (see Table 3)
• Animals were administered the specified treatment on Days 1, 5 and 9 • Treatment were administered by subcutaneous injection into dorsal clipped skin Scoring Criteria • The effect of the treatments was observed and scored daily according to the criteria in Table 4

The test system of test [3] is Mice (C57BL/6). Kind of test: Observation of melanogenesis / anagen induction, external and peeled skin (Example D). Type of test: in vivo. The settings on record: 60 nM; for Black colour in peeled skin (day 16): animals out of 5; for % anagen induction**: with respect to black colour in peeled skin; for Black colour in peeled skin (day 16) / % anagen induction**: day 16; for % anagen induction*: with respect to external skin colour change from pink to black.
Source text: as §1, §2
Following completion of the term of hair growth assessment for Example B, the animals were euthanized and dorsal skin peeled and removed for observation of the internal surface.
The hair growth cycle consists of three phases: a resting telogen phase (C57BL/6 skin is a pale pink colour), an active hair growth anagen phase (where the skin becomes dark gray or black), and finally a catagen phase (where hair growth stops, and the skin transitions back to the telogen phase, returning to a pale pink colour).
as §3

The subject of test [4] is Mice (C57BL/6). Kind of test: In vivo study of hair growth effect in mice of the wildtype osteopontin fragment (Example C). The conditions noted are these: for Hair growth score, Mean: mean of 6 animals. Further details: Hair growth score, Mean: scale not given here. Here is the method:
Animals, as described above in Example B, were treated as described in Table 6:
• This sequence is a fragment of wildtype mouse osteopontin, and corresponds to the region of the protein from which “FOL-004” is derived (i.e. “FOL-004” is a mutated version of wildtype fragment “FOL-001”). • Animals were administered the specified treatment on Days 1, 5 and 9 • Treatment were administered by subcutaneous injection into dorsal clipped skin Scoring Criteria • The effect of the treatments was observed and scored daily as described in Example B. Results

Test [5] relates to male wtC57BL/6N mice. As to the kind of experiment: In vivo study of hair follicle density in mouse skin after intracutaneous injection (Example A). The conditions noted are these: data not shown. The text has this:
The modified osteopontin polypeptide sequence SEQ ID NO:1 was cloned into a pCEP4 expression vector by the use of XhoI and BamHI restriction enzyme sites. The pCEP4 expression vector contains an ampicillin resistance gene for expression in bacteria and a hygromycin resistance gene for expression in eukaryotic EBNA cells. The polypeptide containing vector were transformed into competent XL-10 bacteria cells, multiplied and isolated with Qiagen midi prep kit. Isolated vectors were then transfected into human EBNA cells by the use of Fugene transfection reagent according to manufacture protocol (Invitrogen).
Medium from EBNA cell culture containing the produced polypeptide were collected after three to four days of culture. Polypeptides produced by pCEP4 plasmid contain an inserted His-tag, which is used to facilitate the isolation with Ni-sepharose gel chromatography (Invitrogen). Collected medium was diluted with binding buffer (20 mM sodium phosphate, 500 mM sodium chloride, pH 7.8), Ni-sepharose suspension was added before incubation on shaker overnight at 4° C. […]
Protocol for Hematoxylin-staining of paraffin-embedded sections of Group 1 1. […] Mount slide using Permount and coveslip. a) the time depends on the type of hematoxylin used, 20 sec to 10 min (which can be determined by the use of test slides) b) filtrated before use Results

Entries after “also recorded” stand apart in the source; their conditions may differ.

As for “VDTYDGDISVVYGLR (Preferred 15-amino acid peptide) [FOL-005]”, the “Follicle count in subcutis (no.)” value in test [1] (all animals) stood at 34.80 ± 14.58 no; in test [1] (animals in anagen only), 58 ± 14.58 no. The Skin thickness in test [1] (all animals) and in test [1] (animals in anagen only) was 348.80 ± 40.05 in each case. For the same substance, the “day from which hair growth was evident” value in test [2] came to 5 days. Besides, the “hair growth effect” value in test [2] is “rapid hair growth; also recorded: particular fast onset of action”. For the same substance, the “Hair growth score, Mean” value came to 0.0 in test [2] (Day 1); 0.0 in test [2] (Day 2); 1.3 in test [2] (Day 5); 1.7 in test [2] (Day 6); 1.9 in test [2] (Day 7); 2.1 in test [2] (Day 8). Further, the “Hair growth score, Mean” value amounted to 2.3 in test [2] (Day 9); 2.7 in test [2] (Day 12); 2.8 in test [2] (Day 13); 2.8 in test [2] (Day 14); 3.0 in test [2] (Day 15); 3.0 in test [2] (Day 16). In test [2] (Day 5, individual animal, 60 nM, 25 μl s.c. on Days 1, 5 and 9), this substance yielded a Hair growth score of 2.0. For the same substance, the “No. of animals showing hair growth” value in test [3] is reported as 5/5. For the same substance, the “Skin colour (external)” value in test [3] is “Black”. The “Skin colour (external): animals with this colour” value in test [3] is listed as “(5/5 animals)”. Besides, the “Black colour in peeled skin (day 16)” value in test [3] is listed as 3/5. Moreover, in test [3], the “% anagen induction**” value amounted to 60%. Besides, the “% anagen induction*” value in test [3] was found to be 100%.

In the case of “VDVPNGDISLAYGLR (Preferred 15-amino acid peptide (FOL-004))”, the figures for the “Follicle count in subcutis (no.)” value in test [1] (all animals) and in test [1] (animals in anagen only) were 6.20 ± 5.80 no and 29 ± 5.8 no, respectively. The Skin thickness in test [1] (all animals) and in test [1] (animals in anagen only) was 312.2 ± 15.60 throughout. Further, in test [2], the “day from which hair growth was evident” value stood at 5 days. In addition, in test [2], the “hair growth effect” value was “rapid hair growth; also recorded: particular fast onset of action”. The “Hair growth score, Mean” value in test [2] (Day 1) is 0.0; in test [2] (Day 2) it was 0.0; in test [2] (Day 5) it was 1.7; in test [2] (Day 6), 2.1; in test [2] (Day 7), 2.4; in test [2] (Day 8), 2.5. Also, the “Hair growth score, Mean” value in test [2] (Day 9) came out at 2.6; in test [2] (Day 12), 2.7; in test [2] (Day 13), 2.7; in test [2] (Day 14), 2.7; in test [2] (Day 15) it was 2.9; in test [2] (Day 16), 3.0. In addition, the “No. of animals showing hair growth” value in test [3] was 5/5. Further, in test [3], the “Skin colour (external)” value is “Black”. Further, the “Skin colour (external): animals with this colour” value in test [3] was “(5/5 animals)”. In test [3], the “Black colour in peeled skin (day 16)” value is recorded as 1/5. Also, the “% anagen induction**” value in test [3] came to 20%. For the same substance, the “% anagen induction*” value in test [3] stood at 100%.

As to “VDVPNGRGDSLAYGLR (FOL-001) [fragment of wildtype mouse osteopontin, region from which FOL-004 is derived]”, in test [4] (60 nM s.c. on Days 1, 5 and 9), the “day at which hair growth effect became evident” value was about 9 days. Moreover, the “hair growth effect” value in test [4] (60 nM s.c. on Days 1, 5 and 9) was “delayed but detectable hair growth effect”; in test [4] (60 nM s.c. on Days 1, 5 and 9, listed as equivalent non-mutated wild type sequence), “delayed onset of hair growth stimulation”. In test [4] (60 nM s.c. on Days 1, 5 and 9), the “plateau of hair growth score” value is on record as “about 1.3”. For the same substance, the “Hair growth score, Mean” value in test [4] (Day 1, 60 nM s.c. on Days 1, 5 and 9) worked out at 0; in test [4] (Day 2, 60 nM s.c. on Days 1, 5 and 9) it was 0; in test [4] (Day 5, 60 nM s.c. on Days 1, 5 and 9), 0.17; in test [4] (Day 6, 60 nM s.c. on Days 1, 5 and 9), 0.17; in test [4] (Day 7, 60 nM s.c. on Days 1, 5 and 9) it was 0.17; in test [4] (Day 8, 60 nM s.c. on Days 1, 5 and 9), 0.17. The “Hair growth score, Mean” value in test [4] (Day 9, 60 nM s.c. on Days 1, 5 and 9) is 0.58; in test [4] (Day 12, 60 nM s.c. on Days 1, 5 and 9), 1.17; in test [4] (Day 13, 60 nM s.c. on Days 1, 5 and 9) it was 1.17; in test [4] (Day 14, 60 nM s.c. on Days 1, 5 and 9), 1.33; in test [4] (Day 15, 60 nM s.c. on Days 1, 5 and 9), 1.33. Moreover, the “maximum effect relative to that observed with FOL-004” value in test [4] (hair growth score) is on record as “less than 50%”.

With “wildtype mouse osteopontin: wildtype mouse osteopontin protein, comparator in Example A”, the “effect on hair growth” value in test [5] is listed as “no detectable effect on hair growth”.
